The text below walks through data of patent publication US20030031688A1, “Cosmetic composition with improved skin moisturizing properties” (priority 2001, published 2003).

A short description of this series: Moisture uptake of powder samples in controlled humidity chamber. It is filed as physicochemical. The note with it: 65% relative humidity at 25° C. The protocol:
A mixture of urea and coenzyme Q10 (9:1 Wt./wt.)) was prepared as a dry blend of the raw materials by manually mixing urea (9 parts by weight) and coenzyme Q10 (1 part by weight), with mortar and pestle grinding as necessary, to provide an essentially homogeneous powder. The moisture-absorbing properties were determined based on the amount of moisture uptake over time. For comparison, the moisture-absorbing properties of powder samples of the unblended individual raw materials, i.e., urea alone and coenzyme Q10 alone, were measured.
The samples were placed in a controlled humidity chamber (65% relative humidity at 25° C.) and the mass of each sample was measured at various time points. The water uptake is reflected by the increase in mass over time.
The percentage values shown in Table 1 reflect the percentage increase in mass relative to the weight of the starting sample (prior to being placed in the controlled humidity chamber). The expected percentage values for the blend (“Expected”) were calculated on the basis of the fractional contribution of each component alone, as represented by the following equation: Expected %=(0.9×% measured for urea alone)+(0.1×% measured for Q10 alone).

On to `NC(N)=O` [Urea], for which the “percentage increase in mass relative to the weight of the starting sample (water uptake)” value is, setting by setting: (time 5) 31.0%; (time 10) 4.0%; (time 15) 5.5%; (time 30) 10.6%; (time 45) 16.6%; (time 1 hr) 22.4%.
As to `COC1=C(OC)C(=O)C(C/C=C(\C)CC/C=C(\C)CC/C=C(\C)CC/C=C(\C)CC/C=C(\C)CC/C=C(\C)CC/C=C(\C)CC/C=C(\C)CC/C=C(\C)CCC=C(C)C)=C(C)C1=O` [Product Q10, coenzyme Q10], the “percentage increase in mass relative to the weight of the starting sample (water uptake)” value (time 5) came to 1.0%; the “percentage increase in mass relative to the weight of the starting sample (water uptake)” value (time 10) is recorded as 0.1%; the “percentage increase in mass relative to the weight of the starting sample (water uptake)” value (time 15) is 0.5%; the “percentage increase in mass relative to the weight of the starting sample (water uptake)” value (time 30) came to 1.5%; the “percentage increase in mass relative to the weight of the starting sample (water uptake)” value (time 45) is recorded as 2.4%; the “percentage increase in mass relative to the weight of the starting sample (water uptake)” value (time 1 hr) is 3.1%.
